Measured values as given in patent publication US5948786A, “Piperidinylpyrimidine derivatives” (Sumitomo Pharmaceuticals Company, Limited, priority 1996, dated 1999).

What follows are compounds tested on TNF α production from mouse macrophages (assay: Inhibitory activity of compound on TNF α Production from mouse macrophages (LPS-induced PEC's)). Details: Macrophage, LPS 10 μg/ml, 18 hours.
Type: cell-based
Method: BALB/c mice (female, 5-7 weeks old, Charles River Japan, Tokyo, Japan) were injected i.p. with 1 ml of 2.4% thioglycollate broth. After 4 days, the mice were sacrificed. Peritoneal exudated cells (PEC's) were collected from the peritoneal cavity by washing with minimum essential medium (MEM, Handai biseibutubyou kenkyukai, Osaka, Japan) containing 5 U/ml heparin, 1% fetal bovine serum (FBS, Filtron, Victoria, Australia) and antibiotics. The cells were washed two times with MEM, suspended with MEM containing 10% FBS (complete MEM, cMEM) and seeded into 96-well culture plates (Costar, Cambridge, Mass., USA) at 2×10^5 cells/well. The cells were incubated for 1 hour at 37° C. in a humidified 5% CO2 incubator and washed two times to remove non-adherent cells.
TNF α was induced by 10 μg/ml of LPS (E. coli O111B4, DIFCO, Detroit, Mich., USA) the cells were cultured for 18 hours at 37° C. A compound of the present invention was dissolved in DMSO and added to the culture simultaneously with LPS. The final DMSO concentration was below 0.1%. The TNF α concentration in supernatant and recombinant mouse TNF α standard (rm-TNF α, Genzyme, Mass., USA) were incubated overnight at 4° C. in a 96-well plate coated with anti-mouse TNF α monoclonal antibody (PharMingen, San Diego, Calif., USA) that previously had been blocked with 10% FBS. Each well of the plate first was incubated at room temperature with biotinylated anti-mouse TNF α polyclonal antibodies (PharMingen) for 45 minutes, then with peroxidase-conjugated streptavidin (Kirkegaard & Perry Laboratories Inc., Gaitherburg, Md., USA) for 30 minutes. After each incubation, the plate was washed 4 to 8 times with PBS containing 0.2% Tween 20. TMB (Kirkegaard & Perry Laboratories Inc.) was the peroxidase substrate used and, the absorbance of each well was quantified at 450 nm by a microplatereader (Molecular Devices Corp., CA, USA). TNF α levels in the supernatant were quantified with rm-TNF α as the standard.
Work on `CCCCCCCC(=O)N1CCC(c2cc(-c3ccccc3)nc(N)n2)CC1` [Example 136] yielded an inhibition at 30 µM of 48%.
Compound `CCCCCCCCC(=O)N1CCC(c2cc(-c3ccccc3)nc(N)n2)CC1` [Example 137] has an inhibition at 30 µM of 67%.
In the case of `CCCCCCCCCC(=O)N1CCC(c2cc(-c3ccccc3)nc(N)n2)CC1` [Example 138], the inhibition at 30 µM is reported as 70%.
Compound `COc1ccc(CC(=O)N2CCC(c3cc(-c4ccccc4)nc(N)n3)CC2)cc1` [Example 142] has an inhibition at 30 µM of 55%.
`Nc1nc(-c2ccccc2)cc(C2CCN(C(=O)Cc3ccc(Cl)cc3)CC2)n1` [Example 143] was tested, and the inhibition at 30 µM was 55%.
For `Nc1nc(-c2ccccc2)cc(C2CCN(C(=O)Cc3ccc([N+](=O)[O-])cc3)CC2)n1` [Example 144], the inhibition at 30 µM was 6%.
Work on `CCCCCCCC(=O)N1CCC(c2cc(-c3ccc(Cl)cc3)nc(N)n2)CC1` [Example 147] yielded an inhibition at 30 µM of 55%.
`CCCCCCCCC(=O)N1CCC(c2cc(-c3ccc(Cl)cc3)nc(N)n2)CC1` [Example 148] gave an inhibition at 30 µM of 68%.
`CCCCCCCCCC(=O)N1CCC(c2cc(-c3ccc(Cl)cc3)nc(N)n2)CC1` [Example 149] gave an inhibition at 30 µM of 57%.
Compound `COc1ccc(CC(=O)N2CCC(c3cc(-c4ccc(Cl)cc4)nc(N)n3)CC2)cc1` [Example 151] has an inhibition at 30 µM of 70%.
In the case of `Nc1nc(-c2ccc(Cl)cc2)cc(C2CCN(C(=O)Cc3ccc(Cl)cc3)CC2)n1` [Example 152], the inhibition at 30 µM is reported as 90%.
`Nc1nc(-c2ccc(Cl)cc2)cc(C2CCN(C(=O)Cc3ccc([N+](=O)[O-])cc3)CC2)n1` [Example 153] gave an inhibition at 30 µM of 92%.
Compound `CCCCCCCC(=O)N1CCC(c2cc(-c3ccc(OC)cc3)nc(N)n2)CC1` [Example 154] has an inhibition at 30 µM of 86%.
For `CCCCCCCCC(=O)N1CCC(c2cc(-c3ccc(OC)cc3)nc(N)n2)CC1` [Example 155], the inhibition at 30 µM was 76%.
Compound `CCCCCCCCCC(=O)N1CCC(c2cc(-c3ccc(OC)cc3)nc(N)n2)CC1` [Example 156] has an inhibition at 30 µM of 74%.
`COc1ccc(CC(=O)N2CCC(c3cc(-c4ccc(OC)cc4)nc(N)n3)CC2)cc1` [Example 158] gave an inhibition at 30 µM of 61%.
`COc1ccc(-c2cc(C3CCN(C(=O)Cc4ccc(Cl)cc4)CC3)nc(N)n2)cc1` [Example 159] showed an inhibition at 30 µM of 75%.
With `COc1ccc(-c2cc(C3CCN(C(=O)Cc4ccc([N+](=O)[O-])cc4)CC3)nc(N)n2)cc1` [Example 160] the inhibition at 30 µM was 57%.
Compound `COc1ccc(Cc2cc(C3CCN(C(C)=O)CC3)nc(N)n2)cc1` [Example 162] has an inhibition at 30 µM of 61%.
With `CCC(=O)N1CCC(c2cc(Cc3ccc(OC)cc3)nc(N)n2)CC1` [Example 163] the inhibition at 30 µM was 79%.
`CCCC(=O)N1CCC(c2cc(Cc3ccc(OC)cc3)nc(N)n2)CC1` [Example 164] was tested, and the inhibition at 30 µM was 43%.
With `CCCCC(=O)N1CCC(c2cc(Cc3ccc(OC)cc3)nc(N)n2)CC1` [Example 165] the inhibition at 30 µM was 41%.
Compound `CCCCCC(=O)N1CCC(c2cc(Cc3ccc(OC)cc3)nc(N)n2)CC1` [Example 166] has an inhibition at 30 µM of 48%.
For `CCCCCCC(=O)N1CCC(c2cc(Cc3ccc(OC)cc3)nc(N)n2)CC1` [Example 167], the inhibition at 30 µM was 52%.
`CCCCCCCC(=O)N1CCC(c2cc(Cc3ccc(OC)cc3)nc(N)n2)CC1` [Example 168] was tested, and the inhibition at 30 µM was 49%.
`CCCCCCCCC(=O)N1CCC(c2cc(Cc3ccc(OC)cc3)nc(N)n2)CC1` [Example 169] showed an inhibition at 30 µM of 12%.
`CCCCCCCCCC(=O)N1CCC(c2cc(Cc3ccc(OC)cc3)nc(N)n2)CC1` [Example 170] showed an inhibition at 30 µM of 11%.
`CCCCCCCCCCC(=O)N1CCC(c2cc(Cc3ccc(OC)cc3)nc(N)n2)CC1` [Example 171] was tested, and the inhibition at 30 µM was 13%.
With `COc1ccc(Cc2cc(C3CCN(C(=O)C(C)(C)C)CC3)nc(N)n2)cc1` [Example 173] the inhibition at 30 µM was 31%.
`COc1ccc(Cc2cc(C3CCN(C(=O)CCCl)CC3)nc(N)n2)cc1` [Example 174] gave an inhibition at 30 µM of 54%.
`COc1ccc(Cc2cc(C3CCN(C(=O)CCBr)CC3)nc(N)n2)cc1` [Example 175] gave an inhibition at 30 µM of 48%.
With `COc1ccc(Cc2cc(C3CCN(C(=O)CCNC(=O)OC(C)(C)C)CC3)nc(N)n2)cc1` [Example 176, 2-amino-4-[1-(3-t-butoxycarbonylaminopropanoyl)-4-piperidinyl]-6-(4-methoxyphenylmethyl)pyrimidine] the inhibition at 30 µM was 60%.
For `COc1ccc(Cc2cc(C3CCN(C(=O)CCO)CC3)nc(N)n2)cc1` [Example 177], the inhibition at 30 µM was 46%.
`COc1ccc(Cc2cc(C3CCN(C(=O)c4ccccc4OC)CC3)nc(N)n2)cc1` [Example 178] showed an inhibition at 30 µM of 76%.
Compound `COc1ccc(Cc2cc(C3CCN(C(=O)c4cccc(OC)c4)CC3)nc(N)n2)cc1` [Example 179] has an inhibition at 30 µM of 82%.
Compound `COc1ccc(Cc2cc(C3CCN(C(=O)c4ccc(OC)cc4)CC3)nc(N)n2)cc1` [Example 180] has an inhibition at 30 µM of 70%.
For `COc1ccc(Cc2cc(C3CCN(C(=O)c4ccccc4Cl)CC3)nc(N)n2)cc1` [Example 181], the inhibition at 30 µM was 26%.
In the case of `COc1ccc(Cc2cc(C3CCN(C(=O)c4cccc(Cl)c4)CC3)nc(N)n2)cc1` [Example 182], the inhibition at 30 µM is reported as 46%.
`COc1ccc(Cc2cc(C3CCN(C(=O)c4ccc(Cl)cc4)CC3)nc(N)n2)cc1` [Example 183] showed an inhibition at 30 µM of 54%.
For `COc1ccc(Cc2cc(C3CCN(C(=O)c4ccccc4[N+](=O)[O-])CC3)nc(N)n2)cc1` [Example 184], the inhibition at 30 µM was 73%.
`COc1ccc(Cc2cc(C3CCN(C(=O)c4cccc([N+](=O)[O-])c4)CC3)nc(N)n2)cc1` [Example 185] gave an inhibition at 30 µM of 69%.
For `COc1ccc(Cc2cc(C3CCN(C(=O)c4ccc([N+](=O)[O-])cc4)CC3)nc(N)n2)cc1` [Example 186], the inhibition at 30 µM was 67%.
Work on `COc1ccc(Cc2cc(C3CCN(C(=O)c4ccccn4)CC3)nc(N)n2)cc1` [Example 194] yielded an inhibition at 30 µM of 9%.
`COc1ccc(Cc2cc(C3CCN(C(=O)c4cccnc4)CC3)nc(N)n2)cc1` [Example 195] showed an inhibition at 30 µM of 29%.
In the case of `COc1ccc(Cc2cc(C3CCN(C(=O)c4ccncc4)CC3)nc(N)n2)cc1` [Example 196], the inhibition at 30 µM is reported as 57%.
In the case of `COc1ccc(Cc2cc(C3CCN(C(=O)c4cccc(OC)c4OC)CC3)nc(N)n2)cc1` [Example 197], the inhibition at 30 µM is reported as 29%.
`COc1ccc(Cc2cc(C3CCN(C(=O)c4ccc(OC)cc4OC)CC3)nc(N)n2)cc1` [Example 198] showed an inhibition at 30 µM of 29%.
In the case of `COc1ccc(Cc2cc(C3CCN(C(=O)c4ccc(OC)c(OC)c4)CC3)nc(N)n2)cc1` [Example 201], the inhibition at 30 µM is reported as 46%.
`COc1ccc(Cc2cc(C3CCN(C(=O)c4ccc(Cl)cc4Cl)CC3)nc(N)n2)cc1` [Example 204] was tested, and the inhibition at 30 µM was 84%.
For `COc1ccc(Cc2cc(C3CCN(C(=O)c4cc(Cl)ccc4Cl)CC3)nc(N)n2)cc1` [Example 205], the inhibition at 30 µM was 51%.
Work on `COc1ccc(Cc2cc(C3CCN(C(=O)c4ccc(Cl)c(Cl)c4)CC3)nc(N)n2)cc1` [Example 207] yielded an inhibition at 30 µM of 76%.
With `COc1ccc(Cc2cc(C3CCN(C(=O)c4cccc5ccccc45)CC3)nc(N)n2)cc1` [Example 211] the inhibition at 30 µM was 80%.
In the case of `COc1ccc(Cc2cc(C3CCN(C(=O)c4ccc(OC)c(OC)c4OC)CC3)nc(N)n2)cc1` [Example 213], the inhibition at 30 µM is reported as 43%.
`COc1ccc(Cc2cc(C3CCN(C(=O)c4c(OC)ccc(OC)c4OC)CC3)nc(N)n2)cc1` [Example 214] was tested, and the inhibition at 30 µM was 13%.
For `COc1ccc(Cc2cc(C3CCN(C(=O)c4cc(OC)c(OC)c(OC)c4)CC3)nc(N)n2)cc1` [Example 217], the inhibition at 30 µM was 44%.
Compound `COc1ccc(Cc2cc(C3CCN(C(=O)c4cc(Cl)cc(Cl)c4Cl)CC3)nc(N)n2)cc1` [Example 218] has an inhibition at 30 µM of 55%.
Compound `COc1ccc(Cc2cc(C3CCN(C(=O)c4c(Cl)ccc(Cl)c4Cl)CC3)nc(N)n2)cc1` [Example 219] has an inhibition at 30 µM of 75%.
Work on `COc1ccc(Cc2cc(C3CCN(C(=O)c4c(Cl)cc(Cl)cc4Cl)CC3)nc(N)n2)cc1` [Example 220] yielded an inhibition at 30 µM of 75%.
Compound `COc1ccc(Cc2cc(C3CCN(C(=O)Cc4ccccc4OC)CC3)nc(N)n2)cc1` [Example 222] has an inhibition at 30 µM of 36%.
`COc1ccc(Cc2cc(C3CCN(C(=O)Cc4cccc(OC)c4)CC3)nc(N)n2)cc1` [Example 223] gave an inhibition at 30 µM of 82%.
Compound `COc1ccc(CC(=O)N2CCC(c3cc(Cc4ccc(OC)cc4)nc(N)n3)CC2)cc1` [Example 224] has an inhibition at 30 µM of 73%.
`COc1ccc(Cc2cc(C3CCN(C(=O)Cc4ccccc4Cl)CC3)nc(N)n2)cc1` [Example 225] gave an inhibition at 30 µM of 43%.
With `COc1ccc(Cc2cc(C3CCN(C(=O)Cc4cccc(Cl)c4)CC3)nc(N)n2)cc1` [Example 226] the inhibition at 30 µM was 69%.
For `COc1ccc(Cc2cc(C3CCN(C(=O)Cc4ccc(Cl)cc4)CC3)nc(N)n2)cc1` [Example 227], the inhibition at 30 µM was 63%.
`COc1ccc(Cc2cc(C3CCN(C(=O)Cc4ccc([N+](=O)[O-])cc4)CC3)nc(N)n2)cc1` [Example 233] showed an inhibition at 30 µM of 54%.
With `COc1ccc(Cc2cc(C3CCN(C(=O)Cc4ccc(OC)c(OC)c4)CC3)nc(N)n2)cc1` [Example 237] the inhibition at 30 µM was 87%.
`COc1ccc(Cc2cc(C3CCN(C(=O)Cc4cc(OC)cc(OC)c4)CC3)nc(N)n2)cc1` [Example 238] gave an inhibition at 30 µM of 96%.
